SMILES strings stand for the structures.

Broadly, the IC50 is the concentration at which inhibition is half-maximal.

This experiment has as its target T1, Lp-PLA2 (Homo sapiens, UniProt Q13093).
T1 construct: aliquoted and thawed 40 μL of pooled human plasma was previously added; from tissue; host or cells: pooled human plasma
T1 sequence (Q13093 22-441): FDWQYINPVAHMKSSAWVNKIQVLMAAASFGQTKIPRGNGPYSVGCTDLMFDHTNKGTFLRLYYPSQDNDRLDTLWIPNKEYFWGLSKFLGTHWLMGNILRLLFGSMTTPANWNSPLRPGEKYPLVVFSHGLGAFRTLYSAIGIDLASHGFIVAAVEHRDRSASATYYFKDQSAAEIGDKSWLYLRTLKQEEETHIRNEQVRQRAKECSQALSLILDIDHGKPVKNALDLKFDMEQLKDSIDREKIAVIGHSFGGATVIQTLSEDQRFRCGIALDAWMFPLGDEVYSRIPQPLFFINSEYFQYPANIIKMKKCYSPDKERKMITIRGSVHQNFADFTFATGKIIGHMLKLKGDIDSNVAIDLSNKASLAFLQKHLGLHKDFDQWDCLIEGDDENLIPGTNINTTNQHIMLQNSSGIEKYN
The experiment in a line: Lipoprotein-associated phospholipase A2 (Lp-PLA2) human plasma assay (Thio-PAF assay). It is filed as biochemical. The note with it: Lp-PLA2 human plasma assay (Thio-PAF), pooled human plasma, 30-min pre-incubation at room temperature.
Take `CC12CCCN1c1cc(OCc3ccc(F)c(F)c3)nc(=O)n1C2` (centres unmarked) [Example 62, 3-((3,4-difluorobenzyl)oxy)-8a-methyl-7,8,8a,9-tetrahydro-1H,6H-pyrrolo[1′,2′:3,4]imidazo [1,2-c]pyrimidin-1-one]: the IC50 was determined as 13 nM. Take `CCC12CCCN1c1cc(OCc3cc(F)c(Oc4ccnc(C(F)(F)F)c4)c(F)c3)nc(=O)n1C2` (centres unmarked) [Example 63, 3-((3,5-difluoro-4-((2-(trifluoromethyl)pyridin-4-yl)oxy)benzyl)oxy)-8a-ethyl-7,8,8a,9-tetrahydro-1H,6H-pyrrolo[1′,2′:3,4]imidazo [1,2-c]pyrimidin-1-one]: the IC50 worked out at 8.7 nM. For the compound `CCC12CCCN1c1cc(OCc3cc(F)c(Oc4cnc(C(F)(F)F)nc4)c(F)c3)nc(=O)n1C2` (centres unmarked) [Example 64, 3-((3,5-difluoro-4-((2-(trifluoromethyl)pyrimidin-5-yl)oxy)benzyl)oxy)-8a-ethyl-7,8,8a,9-tetrahydro-1H,6H-pyrrolo[1′,2′:3,4]imidazo [1,2-c]pyrimidin-1-one], the IC50 is 22.6 nM.

For the compound `CCC12CCCN1c1cc(OCc3ccc(Oc4cc(C#N)cc(C(F)(F)F)c4)c(F)c3)nc(=O)n1C2` (centres unmarked) [Example 65], the IC50 amounted to 12.1 nM. On to `CC12CCCCN1c1cc(OCc3cc(F)c(Oc4ccnc(C(F)(F)F)c4)c(F)c3)nc(=O)n1C2` (centres unmarked) [Example 66, 3-((3,5-difluoro-4-((2-(trifluoromethyl)pyridin-4-yl)oxy)benzyl)oxy)-9a-methyl-6,7,8,9,9a,10-hexahydro-1H-pyrido[1′,2′:3,4]imidazo [1,2-c]pyrimidin-1-one], for which the IC50 was determined as 6.9 nM. Consider `CC12CCCCN1c1cc(OCc3cc(F)c(Oc4cnc(C(F)(F)F)nc4)c(F)c3)nc(=O)n1C2` (centres unmarked) [Example 67, 3-((3,5-difluoro-4-((2-(trifluoromethyl)pyrimidin-5-yl)oxy)benzyl)oxy)-9a-methyl-6,7,8,9,9a,10-hexahydro-1H-pyrido[1′,2′:3,4]imidazo [1,2-c]pyrimidin-1-one], for which the IC50 is 8.7 nM.

On to `Cn1cc(Oc2c(F)cc(COc3cc4n(c(=O)n3)CC3(C)CCCCN43)cc2F)cn1` (centres unmarked) [Example 68, 3-((3,5-difluoro-4-((1-methyl-1H-pyrazol-4-yl)oxy)benzyl)oxy)-9a-methyl-6,7,8,9,9a,10-hexahydro-1H-pyrido[1′,2′:3,4]imidazo [1,2-c]pyrimidin-1-one], for which the IC50 is 50 nM. The value for `CC12CCCCN1c1cc(OCc3ccc(Oc4ccc(F)c(C(F)(F)F)c4)nc3)nc(=O)n1C2` (centres unmarked) [Example 69, 3-((6-(4-fluoro-3-(trifluoromethyl)phenoxy)pyridin-3-yl)methoxy)-9a-methyl-6,7,8,9,9a,10-hexahydro-1H-pyrido[1,2′:3,4]imidazo [1,2-c]pyrimidin-1-one] was 325 nM; that for `CC12CCCCN1c1cc(OCc3ccc(Oc4ccc(Cl)c(C(F)(F)F)c4)c(C#N)c3)nc(=O)n1C2` (centres unmarked) [Example 70, 2-(4-chloro-3-(trifluoromethyl)phenoxy)-5-(((-9a-methyl-1-oxo-6,7,8,9,9a,10-hexahydro-1H-pyrido[1′,2′:3,4]imidazo [1,2-c]pyrimidin-3-yl)oxy)methyl)benzonitrile] was 6.9 nM. For `CC12CCCCN1c1cc(OCc3ccc(Oc4cccc(C(F)(F)F)c4)c(C#N)c3)nc(=O)n1C2` (centres unmarked) [Example 71, 5-(((-9a-methyl-1-oxo-6,7,8,9,9a,10-hexahydro-1H-pyrido[1′,2′:3,4]imidazo [1,2-c]pyrimidin-3-yl)oxy)methyl)-2-(3-(trifluoromethyl)phenoxy) benzonitrile], the IC50 is 7.9 nM. Turning to `CC12CCCCN1c1cc(OCc3ccc(Oc4ccc(Cl)c(F)c4)c(C#N)c3)nc(=O)n1C2` (centres unmarked) [Example 72, 2-(4-chloro-3-fluorophenoxy)-5-(((-9a-methyl-1-oxo-6,7,8,9,9a,10-hexahydro-1H-pyrido[1′,2′:3,4]imidazo [1,2-c]pyrimidin-3-yl)oxy)methyl)benzonitrile], the IC50 is 7.6 nM.

These data come from patent publication US20230044787A1, “TRICYCLE DIHYDROIMIDAZOPYRIMIDONE DERIVATIVE, PREPARATION METHOD THEREOF, PHARMACEUTICAL COMPOSITION AND USE THEREOF” (priority 2019, published 2023).
